# Experimental data reported in US10894067B2, “Genome stability enhancer” (Yamada Bee Company, Inc., priority 2017, dated 2021).
# System: H2AX expression in MEF (mouse embryo fibroblast) cells
# Test: Western analysis of H2AX expression in MEF cells (Test Examples 1-3)
# Assay type: cell-based
# Protocol: MEF (mouse embryo fibroblast) cells were cultured at 37° C. in 5% CO2 by the 3T3 method in a 10% FCS (fetal calf serum)-containing DMEM medium to which a 25 μg/ml enzymatically treated RJ or non-treated RJ was added. The cells that were cultured for 0, 3, 6, 12, and 24 hours were harvested, and Western analysis was performed using a H2AX antibody (Bethyl Laboratories, Inc.) and a β-actin antibody (AC-74, Sigma-Aldrich Co. LLC.).
# In the same manner as in Test Example 1, the effects of melinjo and trans-resveratrol on H2AX expression were analyzed. In this test example, a 0.26, 0.52, 1.0, or 2.1 w/v % melinjo seed extract or trans-resveratrol was added to a medium, and cells were cultured for 1 hour and harvested.
compound,measurement,setting,value
Oc1ccc(/C=C/c2cc(O)cc(O)c2)cc1 [trans-resveratrol],Induced transient H2AX expression,"Test Example 2, 0.26, 0.52, 1.0 or 2.1 w/v % in medium, cultured 1 hour, FIG. 2",Induced transient H2AX expression was observed
same,Induced transient H2AX expression,"Test Example 3, 2.5 μM (0.52 μg/ml) trans-resveratrol, 0.52 μg/ml melinjo seed extract, 2.5 μM gnetin C, 0-24 hours, FIG. 3",Induced transient H2AX expression was observed
